Source: patent US8664380B2, “Heterocyclic compound and use thereof” (Takeda Pharmaceutical Company Limited, priority 2008, dated 2014)
Counter-ions that a name gives are not always drawn.

What was measured:
[1] = test system: plasma renin activity; test: Ex vivo plasma renin activity (PRA) test after oral administration; type: in vivo, Macaca fascicularis; settings: for inhibition at 1 mg/kg: Macaca fascicularis, po, 4 h, read-out: Macaca fascicularis plasma renin activity, PPA inhibitory activity (%, n = 3-7); for Macaca fascicularis plasma renin activity, PPA inhibitory activity (%, n = 3-7): male macaca fascicularis, 1 mg/kg orally in 0.5% methylcellulose, plasma 4 hr after administration, amended with vehicle group
Method: Male macaca fascicularis was used. […] PRA was calculated by the following formula.

[2] = molecular target: T1, Human renin (Homo sapiens, UniProt P00797); test: Human renin inhibition; angiotensin I formed from angiotensinogen quantified by EIA; settings: for inhibition at 0.1 µM: read-out: Human renin inhibitory activity, inhibitory activity (%) at 0.1 μM; for Human renin inhibitory activity, inhibitory activity (%) at 0.1 μM: 0.1 μM test compound, substrate human angiotensinogen, 37° C. 30 min
T1 sequence (P00797 67-406): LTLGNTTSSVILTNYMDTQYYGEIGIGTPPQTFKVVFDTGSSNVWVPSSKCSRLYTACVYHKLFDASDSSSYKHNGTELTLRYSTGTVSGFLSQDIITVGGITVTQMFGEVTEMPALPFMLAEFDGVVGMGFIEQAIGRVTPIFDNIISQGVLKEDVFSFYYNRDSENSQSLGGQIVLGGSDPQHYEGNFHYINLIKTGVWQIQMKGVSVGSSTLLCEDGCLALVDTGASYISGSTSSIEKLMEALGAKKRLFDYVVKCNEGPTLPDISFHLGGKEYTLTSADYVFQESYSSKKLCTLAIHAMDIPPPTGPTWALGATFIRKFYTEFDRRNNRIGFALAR
Method: As a substrate for renin activity measurement, the angiotensinogen mentioned in (5) above was used. 1 μl each of the test compound (containing 100% DMSO) was added to each well of a 384-well plate (ABgene). Renin was diluted with a buffer solution for reaction (20 mM sodium phosphate (pH 7.4)) to a concentration of 57 pM, and 14 μl each of the dilution was added to each well. The dilution was left to stand at 37° C. for 10 min, and then 5 μl of each of a 6 μM solution of substrate angiotensinogen was added to each well to initiate the reaction. […] The amount of angiotensin I produced by an enzyme reaction was quantified by Enzyme Immuno Assay (EIA) described below.
Anti-angiotensin I antibody (Peninsula Laboratories Inc.) diluted 5,000-fold with PBS was added to each well of a 384 well black plate (Nalge Nunc International Co., Ltd.) by 25 μl, and left standing overnight at 4° C. to immobilize the antibody in the plate. The antibody solution was removed, PBS solution (100 μl) containing 1% BSA was added to each well, and the mixture was left standing at room temperature for 2 hr for blocking. The blocking solution was removed, and each well was washed 5 times with 100 μl of 0.05% Tween20-PBS. […] Then, a biotinated angiotensin I solution (AnaSpec, 15 μl) prepared to 1.6 nM with a buffer [20 mM tris-hydrochloric acid (pH 7.4), 150 mM sodium chloride, 0.01% BSA, 0.05% Tween20] was added to each well, mixed with a plate mixer and left standing at room temperature for 1 hr. The solutions were removed from each well, and each well was washed 5 times with 100 μl of 0.05% Tween20-PBS. Horseradish peroxydase Streptavidin (PIERCE Biotechnology inc., 25 μl) diluted to 100 ng/ml with a buffer [20 mM tris-hydrochloric acid (pH 7.4), 150 mM sodium chloride, 0.1% BSA, 0.05% Tween 20] was added to each well and the mixture was left standing at room temperature for 30 min. The solutions were removed from each well, and each well was washed 5 times with 100 μl of 0.05% Tween20-PBS. SuperSignal ELISA femto Maximum Sensitivity Substrate (PIERCE Biotechnology Inc.) was added by 25 μl and luminescence intensity was measured by EnVision (Perkin Elmer Inc.). An analytical curve was drawn from the luminescence intensity of wells containing an angiotensin I standard solution, and the amount of angiotensin I produced by an enzyme reaction was calculated and used as an index of renin activity.

Molecule: COCCCCc1c(C(=O)N(CC(C)C)[C@@H]2CNC[C@H](C(=O)N3CCOCC3)C2)nnn1-c1ccccc1Cl [Example 235, 1-(2-chlorophenyl)-5-(4-methoxybutyl)-N-(2-methylpropyl)-N-[(3S,5R)-5-(morpholin-4-ylcarbonyl)piperidin-3-yl]-1H-1,2,3-triazole-4-carboxamide hydrochloride]
- inhibition at 1 mg/kg [1]: 62%
- inhibition at 0.1 µM [2]: 97%

Molecule: COCCCCn1c(C(=O)N(CC(C)C)[C@@H]2CNC[C@H]([C@H](O)COC)C2)nc2ccccc21 [Example 73-2, N-{(3S,5R)-5-[(1S)-1-hydroxy-2-methoxyethyl]piperidin-3-yl}-1-(4-methoxybutyl)-N-(2-methylpropyl)-1H-benzimidazole-2-carboxamide dihydrochloride]
- inhibition at 1 mg/kg [1]: 90%
- inhibition at 0.1 µM [2]: 96%

Molecule: COCCCCn1c(C(=O)N(CC(C)C)[C@@H]2CNC[C@H](C(=O)N3CCOCC3)C2)nc2ccccc21 [Example 10, 1-(4-methoxybutyl)-N-(2-methylpropyl)-N-[(3S,5R)-5-(morpholin-4-ylcarbonyl)piperidin-3-yl]-1H-benzimidazole-2-carboxamide dihydrochloride]
- inhibition at 1 mg/kg [1]: 72%
- Human renin inhibitory activity, inhibitory activity (%) at 0.1 μM [2]: 97%

Molecule: N-{(3S, 5R)-5-[(1R)-1-hydroxypropyl]piperidin-5-yl}-1-(4-methoxybutyl)-N-(2-methylpropyl)-1H-benzimidazole-2-carboxamide dihydrochloride [Example 75-2]
- Macaca fascicularis plasma renin activity, PPA inhibitory activity (%, n = 3-7) [1]: 71%
- Human renin inhibitory activity, inhibitory activity (%) at 0.1 μM [2]: 90%

Molecule: N-{(3S,5R)-5-[(1R)-1-hydroxyethyl]piperidin-5-yl}-1-(4-methoxybutyl)-N-(2-methylpropyl)-1H-benzimidazole-2-carboxamide carboxamide dihydrochloride [Example 74-2]
- Macaca fascicularis plasma renin activity, PPA inhibitory activity (%, n = 3-7) [1]: 54%
- Human renin inhibitory activity, inhibitory activity (%) at 0.1 μM [2]: 96%
